The values below are quoted from earlier work in US6558704B1, “Process for preparing pellets containing up to 90 wt.% of a pharmaceutical active ingredient” (Gruenenthal GmbH, priority 1999, dated 2003).

Molecules are shown by their SMILES. Where a name gives a salt, the structure may show the parent alone.

For `Cc1c(N(C)CS(=O)(=O)[O-])c(=O)n(-c2ccccc2)n1C.[Na+]` [metamizol-Na], the solubility in water was > 1 g/mL.
With `CN(C)CCCN1c2ccccc2Sc2ccc(Cl)cc21` [chlorpromazine hydrochloride], the solubility in water was 2.5 g/mL.
